In PMC9603770, “Broad-Spectrum Inhibitors against Class A, B, and C Type β-Lactamases to Block the Hydrolysis against Antibiotics: Kinetics and Structural Characterization” (Microbiology Spectrum, 2022):
pIC50: −log10 of the molar value.

Key:
Type in all cases: biochemical
[1] = biological target: T1, KPC-2 (Klebsiella pneumoniae, UniProt Q9F663); assay: Steady-state kinetics of antibiotic hydrolysis with inhibitor; settings: inhibitor concentration as per IC50
T1 construct: made in house; host or cells: E. coli (DH5 and BL21(DE3) named; pET-28a)
Method: (§1) The enzyme kinetics parameters (Km, and kcat) for all six proteins/enzymes in combination with different antibiotics (cefotaxime, imipenem, and meropenem), were calculated. The concentration of inhibitors, D63, D2148, and D2573, was as per the IC50 value (Fig. 5); the kinetic parameters are listed in Table 8.
(§2) The steady-state kinetics of all six proteins were determined using the antibiotics:imipenem (Δε295 = −11,500 M^−1 cm^−1), meropenem (Δε297 = −10,940 M^−1 cm^−1), and cefotaxime (Δε264 = −27,250 M^−1 cm^−1). In this study, the D63, D2148, and D2573 inhibitors were tested. Hydrolysis of β-lactam antibiotics was detected by monitoring the variation in absorbance due to cleavage of the β-lactam ring in 50 mM, pH 7.0, phosphate buffer ([40], [41]). For hydrolysis of substrate (cefotaxime, imipenem, and meropenem) kinetics parameters, Km and kcat were calculated by using Michaelis Menten equations (equations 2 and 3). (2) V =Vmax [S]/Km + [S] (3) kcat = Vmax/E where E and S are the enzyme and substrate concentration, Km is the Michaelis-Mentent constant, kcat is the turnover number, and V and Vmax are the initial and maximum velocity of the hydrolysis, respectively.

[2] = biological target: T2, NDM-1 (Klebsiella pneumoniae, UniProt C7C422); assay: as above; settings: inhibitor concentration as per IC50
T2 construct: made in house; host or cells: E. coli (DH5 and BL21(DE3) named)
Method: as §1, §2

[3] = biological target: T3, SHV-1 (Klebsiella pneumoniae, UniProt P0AD64); assay: as above; settings: inhibitor concentration as per IC50
T3 construct: made in house; host or cells: E. coli (DH5 and BL21(DE3) named; pET-28a)
Method: as §1, §2

[4] = biological target: T4, Amp-C (Escherichia coli, UniProt P00811); assay: as above; settings: inhibitor concentration as per IC50
T4 construct: made in house; host or cells: E. coli (DH5 and BL21(DE3) named; pET-28a)
Method: as §1, §2

[5] = biological target: T5, TEM-1 (Escherichia coli, UniProt P62593); assay: as above; settings: inhibitor concentration as per IC50
T5 construct: made in house; host or cells: E. coli (DH5 and BL21(DE3) named; pET-28a)
Method: as §1, §2

[6] = biological target: T6, CTX-M-15 (Escherichia coli, UniProt Q9EXV5); assay: as above; settings: inhibitor concentration as per IC50
T6 construct: made in house; host or cells: E. coli (DH5 and BL21(DE3) named)
Method: as §1, §2

[7] = biological target: T1, KPC-2; assay: IC50, nitrocefin hydrolysis; settings: 100 μΜ nitrocefin
Method: (§3) The IC50 values of all the proteins were calculated to determine the efficacy of each inhibitor. The IC50 values were calculated for the proteins NDM-1, Amp-C, KPC-2, CTX-M-15, SHV-1, and TEM-1 with each of its inhibitors (D63, D2148, and D2573) to compare their efficacies at a fixed concentration 100 μΜ of nitrocefin (Table 7).
(§4) Overexpression of proteins was done by adding 0.5 mM IPTG (isopropyl-β-D-thiogalactopyranoside), and purification of the NDM-1, SHV-1, TEM-1, CTX-M-15, KPC-2, and Amp-C recombinant protein was performed with an Ni-NTA affinity column. […] The final concentration of the protein was estimated with a NanoDrop instrument.
(§5) The direct competition between the β-lactamase substrate, nitrocefin, and their inhibitors were used to determine the IC50 and Ki values. Using a Shimadzu UV-VIS spectrophotometer UV-1800, variable quantities of inhibitor D63, D2148, and D2573 (0 to 3 μM), fixed concentrations of purified proteins (1 nM), and nitrocefin substrate (100 μM) were used in a reaction at 486 nm. […] The IC50 value is the inhibitor concentration that inhibits enzyme hydrolytic activity by 50% (50% inhibitory concentration).

[8] = biological target: T2, NDM-1; assay: IC50, nitrocefin hydrolysis; settings: 100 μΜ nitrocefin
Method: as §3, §4, §5

[9] = biological target: T3, SHV-1; assay: IC50, nitrocefin hydrolysis
Method: as §3, §4, §5

[10] = biological target: T4, Amp-C; assay: IC50, nitrocefin hydrolysis
Method: as §3, §4, §5

[11] = biological target: T5, TEM-1; assay: IC50, nitrocefin hydrolysis; settings: 100 μΜ nitrocefin
Method: as §3, §4, §5

[12] = biological target: T6, CTX-M-15; assay: IC50, nitrocefin hydrolysis; settings: 100 μΜ nitrocefin
Method: as §3, §4, §5

T3 sequence (P0AD64 22-286): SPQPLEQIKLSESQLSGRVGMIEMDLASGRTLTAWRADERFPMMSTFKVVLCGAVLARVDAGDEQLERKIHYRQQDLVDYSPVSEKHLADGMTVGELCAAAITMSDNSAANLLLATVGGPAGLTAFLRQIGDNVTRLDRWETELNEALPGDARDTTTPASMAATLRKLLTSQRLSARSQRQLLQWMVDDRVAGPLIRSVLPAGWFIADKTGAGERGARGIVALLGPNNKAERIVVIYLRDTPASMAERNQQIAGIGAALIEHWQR
T4 sequence (P00811 20-377): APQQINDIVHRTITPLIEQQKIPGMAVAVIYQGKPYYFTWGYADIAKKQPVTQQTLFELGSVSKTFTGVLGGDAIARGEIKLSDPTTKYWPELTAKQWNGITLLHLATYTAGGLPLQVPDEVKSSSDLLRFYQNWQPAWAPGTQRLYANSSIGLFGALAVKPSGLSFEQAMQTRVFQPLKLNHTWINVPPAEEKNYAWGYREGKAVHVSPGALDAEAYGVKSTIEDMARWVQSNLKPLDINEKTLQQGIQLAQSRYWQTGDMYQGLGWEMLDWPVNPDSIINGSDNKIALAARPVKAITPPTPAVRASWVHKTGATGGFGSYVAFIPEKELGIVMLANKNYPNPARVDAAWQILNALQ
T5 sequence (P62593 24-286 limits assumed): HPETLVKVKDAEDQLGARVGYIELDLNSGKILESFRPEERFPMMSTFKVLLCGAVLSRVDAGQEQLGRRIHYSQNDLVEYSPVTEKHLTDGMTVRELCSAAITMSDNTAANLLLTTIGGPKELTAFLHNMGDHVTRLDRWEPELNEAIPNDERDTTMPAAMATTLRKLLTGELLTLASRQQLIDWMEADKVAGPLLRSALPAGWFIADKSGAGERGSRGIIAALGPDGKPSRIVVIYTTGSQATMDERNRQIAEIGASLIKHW
T1 sequence (Q9F663 25-293, looked up, species assumed): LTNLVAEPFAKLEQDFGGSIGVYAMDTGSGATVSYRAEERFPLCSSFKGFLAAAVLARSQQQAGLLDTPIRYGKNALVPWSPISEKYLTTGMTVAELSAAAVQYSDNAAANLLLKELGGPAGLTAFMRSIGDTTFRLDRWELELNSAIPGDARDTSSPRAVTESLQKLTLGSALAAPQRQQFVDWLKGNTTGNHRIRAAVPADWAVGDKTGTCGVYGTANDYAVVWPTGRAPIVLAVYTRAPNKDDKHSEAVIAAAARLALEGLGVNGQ
T2 sequence (C7C422 29-270, looked up, species assumed): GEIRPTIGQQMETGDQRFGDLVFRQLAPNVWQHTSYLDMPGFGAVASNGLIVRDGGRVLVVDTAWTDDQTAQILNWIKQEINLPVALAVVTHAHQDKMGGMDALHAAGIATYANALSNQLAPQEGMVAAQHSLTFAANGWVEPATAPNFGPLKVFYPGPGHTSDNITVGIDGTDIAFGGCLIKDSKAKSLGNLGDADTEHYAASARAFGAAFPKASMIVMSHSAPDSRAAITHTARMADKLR
T6 sequence (Q9EXV5 29-291, species assumed): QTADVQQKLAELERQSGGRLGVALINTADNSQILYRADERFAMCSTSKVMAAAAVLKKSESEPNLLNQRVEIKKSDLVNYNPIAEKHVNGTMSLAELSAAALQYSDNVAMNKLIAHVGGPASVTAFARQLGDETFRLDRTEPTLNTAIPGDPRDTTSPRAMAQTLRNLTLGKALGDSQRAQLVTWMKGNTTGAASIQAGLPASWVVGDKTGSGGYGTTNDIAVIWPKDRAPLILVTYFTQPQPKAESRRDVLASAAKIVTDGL

O=C(O)c1ccccc1C(=O)N1CCN(c2nc(-c3ccccc3)ns2)CC1 [D2573, 2-{[4-(3-phenyl-1,2,4-thiadiazol-5-yl)piperazino]carbonyl}benzoic acid]
Km or Ki ([1]; cefotaxime): 549.1 μΜ
kcat ([1]; cefotaxime): 0.454 S^−1
Km or Ki ([1]; imipenem): 878.8 μΜ
kcat ([1]; imipenem): 0.419 S^−1
Km or Ki ([1]; meropenem): 2,786 μΜ
kcat ([1]; meropenem): 1.02 S^−1
Km or Ki ([2]; cefotaxime): 8,756 μΜ
kcat ([2]; cefotaxime): 4.921 S^−1
Km or Ki ([2]; imipenem): 301.3 μΜ
kcat ([2]; imipenem): 3.875 S^−1
Km or Ki ([2]; meropenem): 756.8 μΜ
kcat ([2]; meropenem): 14.59 S^−1
Km or Ki ([3]; cefotaxime): 608 μΜ
kcat ([3]; cefotaxime): 0.8431 S^−1
Km or Ki ([3]; imipenem): 1,138 μΜ
kcat ([3]; imipenem): 0.958 S^−1
Km or Ki ([3]; meropenem): 979 μΜ
kcat ([3]; meropenem): 1.232 S^−1
Km or Ki ([4]; cefotaxime): 1,522 μΜ
kcat ([4]; cefotaxime): 1.5 S^−1
Km or Ki ([4]; imipenem): 499 μΜ
kcat ([4]; imipenem): 1.158 S^−1
Km or Ki ([4]; meropenem): 553 μΜ
kcat ([4]; meropenem): 1.09 S^−1
Km or Ki ([5]; cefotaxime): 905.2 μΜ
kcat ([5]; cefotaxime): 1.056 S^−1
Km or Ki ([5]; imipenem): 2,665 μΜ
kcat ([5]; imipenem): 1.454 S^−1
Km or Ki ([5]; meropenem): 2,129 μΜ
kcat ([5]; meropenem): 1.563 S^−1
Km or Ki ([6]; cefotaxime): 330.1 μΜ
kcat ([6]; cefotaxime): 0.9055 S^−1
kcat ([6]; imipenem): 1.454 S^−1
Km or Ki ([6]; meropenem): 469.8 μΜ
kcat ([6]; meropenem): 0.9091 S^−1
pIC50 [7]: 9.18
pIC50 [8]: 9.20
pIC50 [9]: 9.18
pIC50 [10]: 9.18
pIC50 [11]: 9.20
pIC50 [12]: 9.14

O=C(c1ccccc1)C1CCN(C(=O)CN2C(=O)c3ccccc3C2=O)CC1 [D2148, 2-[2-(4-benzoylpiperidino) -2-oxoethyl]-1H-isoindole-1,3(2H)-dione]
Km or Ki ([1]; cefotaxime): 358.7 μΜ
kcat ([1]; cefotaxime): 3.293 S^−1
Km or Ki ([1]; imipenem): 301.8 μΜ
kcat ([1]; imipenem): 3.44 S^−1
Km or Ki ([1]; meropenem): 491 μΜ
kcat ([1]; meropenem): 2.47 S^−1
Km or Ki ([2]; cefotaxime): 1,939 μΜ
kcat ([2]; cefotaxime): 15.88 S^−1
Km or Ki ([2]; imipenem): 995.4 μΜ
kcat ([2]; imipenem): 20.6 S^−1
Km or Ki ([2]; meropenem): 986.4 μΜ
kcat ([2]; meropenem): 9.201 S^−1
Km or Ki ([3]; cefotaxime): 626.2 μΜ
kcat ([3]; cefotaxime): 6.751 S^−1
Km or Ki ([3]; imipenem): 618.4 μΜ
kcat ([3]; imipenem): 5.535 S^−1
Km or Ki ([3]; meropenem): 1,376 μΜ
kcat ([3]; meropenem): 6.436 S^−1
Km or Ki ([4]; cefotaxime): 796.6 μΜ
kcat ([4]; cefotaxime): 3.401 S^−1
Km or Ki ([4]; imipenem): 1,136 μΜ
kcat ([4]; imipenem): 2.631 S^−1
Km or Ki ([4]; meropenem): 794 μΜ
kcat ([4]; meropenem): 2.637 S^−1
Km or Ki ([5]; cefotaxime): 757.7 μΜ
kcat ([5]; cefotaxime): 6.332 S^−1
Km or Ki ([5]; imipenem): 689.7 μΜ
kcat ([5]; imipenem): 0.9853 S^−1
Km or Ki ([5]; meropenem): 7,537 μΜ
kcat ([5]; meropenem): 43.13 S^−1
Km or Ki ([6]; cefotaxime): 670.6 μΜ
kcat ([6]; cefotaxime): 838.6 S^−1
Km or Ki ([6]; imipenem): 675.9 μΜ
kcat ([6]; imipenem): 2,720 S^−1
Km or Ki ([6]; meropenem): 9,333 μΜ
kcat ([6]; meropenem): 17,974 S^−1
pIC50 [7]: 9.13
pIC50 [8]: 9.20
pIC50 [9]: 9.23
pIC50 [10]: 9.15
pIC50 [11]: 9.35
pIC50 [12]: 9.20

O=C(CN1C(=O)c2ccccc2S1(=O)=O)c1ccc(O)c(O)c1 [D63, 2-[2-(3,4-dihydroxyphenyl)-2-oxoethyl]-1H-1,2-benzisothiazole-1,1,3(2H)-trione]
Km or Ki ([1]; cefotaxime): 713 μΜ
kcat ([1]; cefotaxime): 0.384 S^−1
Km or Ki ([1]; imipenem): 489.1 μΜ
kcat ([1]; imipenem): 0.39 S^−1
Km or Ki ([1]; meropenem): 511.7 μΜ
kcat ([1]; meropenem): 0.45 S^−1
Km or Ki ([2]; cefotaxime): 410.8 μΜ
kcat ([2]; cefotaxime): 1.833 S^−1
Km or Ki ([2]; imipenem): 258.7 μΜ
kcat ([2]; imipenem): 18.29 S^−1
Km or Ki ([2]; meropenem): 1,052 μΜ
kcat ([2]; meropenem): 9.282 S^−1
Km or Ki ([3]; cefotaxime): 1,375 μΜ
kcat ([3]; cefotaxime): 1.621 S^−1
Km or Ki ([3]; imipenem): 851 μΜ
kcat ([3]; imipenem): 1.525 S^−1
Km or Ki ([3]; meropenem): 2,881 μΜ
kcat ([3]; meropenem): 1.928 S^−1
Km or Ki ([4]; cefotaxime): 1,522 μΜ
kcat ([4]; cefotaxime): 1.537 S^−1
Km or Ki ([4]; imipenem): 499.22 μΜ
kcat ([4]; imipenem): 1.158 S^−1
Km or Ki ([4]; meropenem): 553.8 μΜ
kcat ([4]; meropenem): 1.093 S^−1
Km or Ki ([5]; cefotaxime): 1,353 μΜ
kcat ([5]; cefotaxime): 1.051 S^−1
Km or Ki ([5]; imipenem): 673.1 μΜ
kcat ([5]; imipenem): 1.194 S^−1
Km or Ki ([5]; meropenem): 253.5 μΜ
kcat ([5]; meropenem): 0.6169 S^−1
Km or Ki ([6]; cefotaxime): 742.7 μΜ
kcat ([6]; cefotaxime): 0.7320 S^−1
Km or Ki ([6]; imipenem): 480.5 μΜ
kcat ([6]; imipenem): 5.572 S^−1
Km or Ki ([6]; meropenem): 228.4 μΜ
kcat ([6]; meropenem): 1.723 S^−1
pIC50 [7]: 9.16
pIC50 [8]: 9.13
pIC50 [9]: 9.19
pIC50 [10]: 9.22
pIC50 [11]: 9.14
pIC50 [12]: 9.11
